Results as given in patent US20230242956A1, “POLYPHOSPHATE KINASE MUTANT, ENGINEERED STRAIN AND APPLICATION THEREOF” (ZHEJIANG UNIVERSITY OF TECHNOLOGY, priority 2022, published 2023).

Biological target: T1, Cytophaga hutchinsonii polyphosphate kinase (ChPPK) mutant A79G/S106C/I108F/L285P (parent SEQ ID NO: 2) (Cytophaga hutchinsonii, UniProt A0A6N4SMB5, A79G/I108F/L285P/S106C)
T1 sequence (A0A6N4SMB5 with tags, fused parts or gaps A79G/S106C/I108F/L285P): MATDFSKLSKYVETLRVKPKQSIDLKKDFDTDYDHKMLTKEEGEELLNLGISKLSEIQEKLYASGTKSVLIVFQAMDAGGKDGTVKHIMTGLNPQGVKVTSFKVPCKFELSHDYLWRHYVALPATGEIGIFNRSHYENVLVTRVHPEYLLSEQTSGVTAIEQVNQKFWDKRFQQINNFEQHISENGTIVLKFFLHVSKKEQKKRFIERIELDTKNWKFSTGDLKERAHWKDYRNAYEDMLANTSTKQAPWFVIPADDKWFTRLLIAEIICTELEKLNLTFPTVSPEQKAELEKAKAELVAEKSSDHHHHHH
Experiment: Kinetic parameters of mutant ChPPK/A79G/S106C/I108F/L285P (pure enzyme, pseudo-one-substrate kinetic model, ATP by HPLC)
Format: biochemical
Settings: mutant versus wild-type; substrate AMP or PPA
Method: (2) Pure enzyme: 5 mL of the crude enzyme solution was diluted with 40 mL of potassium phosphate buffer (20 mM, pH 7.2), and then applied to a HisTrap HP purification column of GE Healthcare (10 mL column, pre-washed with a pH 7.2, 20 mM potassium phosphate buffer containing 500 mM NaCl). The resulting purification column was eluted with 100 mL of washing buffer (a pH7.2, 20 mM potassium phosphate buffer containing 500 mM sodium chloride and 50 mM imidazole) at a rate of 0.5 mL/min to remove the absorbed protein impurities, and then eluted with an elution buffer (a pH7.2, 20 mM potassium phosphate buffer containing 500 mM sodium chloride and 50 mM imidazole) at a speed of 0.5 mL/min to collect an elution solution containing the target protein. Then the elution solution containing the target protein was dialyzed in a dialysis bag (the MWCO of the dialysis bag was 14 KDa) with a pH7.2 of 20 mM potassium phosphate buffer for 48h, and the retentate was taken as pure enzyme. The concentration of the pure enzyme was determined by Beyotime BCA Protein Assay Kit(P0012), and the amount of the pure enzyme used in the following examples was calculated by protein content.
0.4 mg of the crude enzyme solution prepared by the method in Example 2 or 0.05 mg of the pure enzyme, polyphosphoric acid (PPA) at a final concentration of 1.6 g/L, adenosine phosphate (AMP) at a final concentration of 2.25 mM, and MgCl2 at a final concentration of 10 mM were added to 10 mL of 50 mM potassium phosphate buffer (pH 7.5). The reaction solution was incubated at 37° C. for 5 min, and then 10 mL of 0.2 M phosphoric acid solution was added to terminate the reaction. The ATP content in the solution was determined by HPLC method. […]
The wild-type Ecoli.BL21(DE3)-ChPPK constructed by the method of Example 1 and the engineered strain Ecoli.BL21(DE3)-ChPPK/A79G/S106C/I108F/L285P constructed by the method of Example 6 were used to prepare pure enzymes by the method of Example 2. Km and Kcat were calculated by pseudo-one-substrate kinetic model. […]

Nc1ncnc2c1ncn2[C@@H]1O[C@H](COP(=O)(O)O)[C@@H](O)[C@H]1O [AMP, adenosine phosphate]
Km, wild-type compared with mutant (in words): similar
catalytic efficiency (kcat/Km) of the mutant, fold higher than wild-type ChPPK: 16 fold
turnover number (kcat value), mutant compared with wild-type (in words): increased
